Measured values as given in US12239645B2, “Targeted dosing for the treatment of complement mediated disorders” (Achillion Pharmaceuticals, Inc., priority 2018, dated 2025).
Converted amounts (≈) assume the structure as drawn. “And” between values parts separate entries of the source, which are not always exact repeats. Equal entries are not always repeated.

Columns and labels:
Type in all cases: in vivo, human
[1] = tested on: Bb fragment of complement Factor B; experiment: MAD study single-dose cohorts: plasma Bb concentration by ELISA; conditions: 240 mg single dose
Description: FIG. 15 is a graphical display of mean plasma Bb concentration as determined by ELISA assay for all subjects in the first 24 hours after administration of Compound 1 at single doses of 240 mg in fasted subjects (n=6), 120 mg in fed subjects (n=6) and placebo (n=4). Horizontal dashed gridlines represent: upper limit of normal (1.42 μg/ml); lower limit of normal (0.48 μg/ml); and lower limit of quantitation (LLOQ) (0.33 μg/ml). The x-axis is Time in hours and the y-axis is Mean Plasma Bb Concentration measured in μg/mL.
Serum AP hemolysis activity was assessed in samples collected at predefined time points from Day 1 (pre-dose) through Day 7. Ex vivo serum AP inhibition was more prolonged in the 240 mg dose group than previously observed in the SAD study at doses up to 120 mg (FIG. 14). […] Mean pre-dose (Day 1, 0 h) activity among active subjects was 123.02% (240 mg) and 110.43% (120 mg). Activity was reduced to 10% or lower from 1.5 h through 16 h in the 240 mg group, and from 2 h through 6 h in the 120 mg group. Activity was recovered to nearly pre-dose levels by 48 hours. AP activity in placebo subjects in contrast varied little from the pre-dose value of 109.52%, with a minimum value among all time points of 81.46%. […]

[2] = tested on: fD, C3, C4, classical pathway (CP) function; experiment: Other complement assays (fD, C3, C4 serum concentration, serum total CP function)
Description: […] were dosed and evaluated in 4 dose groups with ten subjects receiving placebo (Table 1). The first dose group had 6 active and 6 placebo subjects; subsequent groups had 6 active and 2 placebo subjects each. Each group was followed for 28 days after dosing. All subjects were monitored for safety through the last scheduled visit at Day 28. Blood and urine samples were collected at predefined time points from Days 1 to 4 to determine plasma and urine concentrations of Compound 1 and from Days 1 to 7 to determine complement related activities. Results of serum AP activity measured by AP Wieslab assay as well as plasma Bb, factor D level and several other PD biomarkers were determined.
Serum AP hemolysis activity was assessed in samples collected from all cohorts at predefined time points from Day 1 (pre-dose) through Day 21. Intense sampling was obtained on Day 1 (0 h to 12 h), Day 7 (0 h to 12 h), and Day 14 (0 h to 16 h); all other serum samples were collected at 0 h (morning PK troughs) on the indicated days. […] Serum complement AP activity measured ex vivo by the AP Wieslab assay, serum total complement classical pathway (CP) activity, plasma complement Bb concentrations, and serum FD, C3, and C4 concentrations were also measured at predefined time points.

[3] = tested on: complement alternative pathway (AP) activity; experiment: SAD study: ex vivo serum AP hemolysis assay and PK-PD analysis; conditions: for time approximately 90% or greater inhibition maintained after dosing: AP hemolysis
Description: For human serum preparation, venous blood was collected by standard clinical procedures into a Gold Top, SST vacutainer (BD Vacutainer). After clotting at room temperature for 30 minutes or longer, the tube was centrifuged at ˜1,300×g at 4° C. for 15 minutes to separate the serum from the clot. Serum was then aliquotted into pre-chilled cryovials (50-200 μl/vial) for storage at ˜80° C. Each vial was thawed only once and used for each complement related assay, the remaining sample was discarded without further usage. For preparation of plasma, venous blood was collected into a Lavender Top, K2EDTA vacutainer and gently inverted several times to allow for complete mixing of the blood sample with the anticoagulant. The tube was placed in an ice-bath for 30 minutes and then centrifuged for 15 minutes at ˜1300×g at 4° C. to separate the plasma from the blood cells. Plasma was divided into aliquots in pre-chilled cryogenic storage tubes and stored at a ˜80° C. freezer within one hour of having collected the blood sample. For delivery, tubes containing either serum or plasma were shipped in the presence of dry ice without additional freeze-thaw cycle.
Ex vivo serum AP hemolysis assays were conducted in 96-well microtiter plates divided into two parts, one for hemolysis and the other for serum background color subtraction. Briefly, a suspension of rabbit red blood cells (RBCs) was centrifuged at 800×g at 4° C. for 3 minutes and the supernatant was removed to get rid of the RBC debris. The RBC cell pellet was re-suspended gently with pre-chilled gelatin veronal buffer (GVB0) containing 10 mM MgEGTA to a density of 5×10^8 cells/mL. Other controls including buffer, spontaneous rabbit RBC lysis, 100% RBC lysis (in water), and normal serum control were set up alongside the test samples as well. Serum was placed in a 37° C. water-bath until mostly thawed and immediately transferred to ice bath. 20% serum was prepared with GVB0-MgEGTA buffer and kept at ice bath before testing. Reactions were carried out in a 96 well plate by mixing 50 μl of 20% serum with equal volume of GVB0-MgEGTA buffer and then quickly adding 20 μl of RBC suspension. The plate was shaken on a microtiter plate shaker for 5 seconds and then incubated at 37° C. for 30 minutes. Halfway during the incubation period, the plate was shaken for another 5 seconds as described above. At the end of the incubation, the plate was centrifuged at 800×g at 4° C. for 3 minutes to pellet the un-lysed rabbit RBCs. 80 μl of supernatant was removed carefully from all wells and transferred to a clear flat-bottom microtiter plate for the measurement of optical absorbance at 405 nm (A405) in a Molecular Devices Spectramax Plus plate reader. AP hemolysis in each well was calculated relative to the activity of the NHS reference sample formulas as follows: Hemolysis (%)=((Hm−Bk)−(Sp−Bf))/((NH−BkNH)−(Sp−Bf))×100%
where Hm=A405 in the hemolysis well, Bk=A405 in the corresponding background well, Sp=mean A405 in the spontaneous hemolysis wells, Bf=mean A405 in the buffer alone wells, NH=mean A405 in the reference NHS wells, and BkNH=mean A405 in the corresponding background wells.
The PK-PD relationship was evaluated using time-matched plasma Compound 1 concentrations and serum AP inhibition values by non-linear regression with GraphPad Prism (La Jolla, CA) using the following two models: • 1. […] Pharmacodynamic and Pharmacokinetic Results AP Activity Measured with AP Hemolysis […]

CC(=O)c1nn(CC(=O)N2[C@H](C(=O)Nc3nc(Br)ccc3C)C[C@@]3(C)C[C@@H]23)c2ccc(-c3cnc(C)nc3)cc12 [Compound 1, (1R,3S,5R)-2-(2-(3-acetyl-5-(2-methylpyrimidin-5-yl)-1H-indazol-1-yl)acetyl)-N-(6-bromo-3-methylpyridin-2-yl)-5-methyl-2-azabicyclo[3.1.0]hexane-3-carboxamide]
time plasma Bb remained near its nadir post-dose [1]: at least 16 hours
change in serum CP activity and serum factor D, C3, C4 concentrations ([2]; MAD study single-dose cohorts (240 mg fasted, 120 mg fed)): no significant changes
change in fD, C3, C4 serum concentration and serum total CP function ([2]; SAD, single dose up to 120 mg, vs baseline and placebo): no significant changes
time approximately 90% or greater inhibition maintained after dosing ([3]; Group 1, 40 mg single dose): at least 4 hours
time approximately 90% or greater inhibition maintained after dosing ([3]; Groups 2 and 3, 80 and 120 mg single dose): at least 8 hours
EC50 ([3]; Homo sapiens, simple Emax model, all SAD dose cohorts, read-out: EC50 (plasma concentration vs serum AP inhibition)): 0.0111 µg/mL (≈ 0.0184 µM)
EC50 (plasma concentration vs serum AP inhibition) ([3]; simple Emax model, all SAD dose cohorts): ~0.01 µg/mL and 0.011 µg/mL
inhibition of AP activity after dosing ([3]; single dose 40, 80 or 120 mg, all groups): complete inhibition
